Among the test systems are Malme-3M; HCC 2998; RXF 393; MOLT-4; CAKI-1; MCF7; NCI/ADR-RES; OVCAR-8; UACC-62; NCI-H23; HCT-116; SR; HCT-15; HL-60; OVCAR-5; U-251; EKVX; SNB-19; ACHN; HOP-92.
Common to all, as to experiment: NCI anticancer screen, dose series, 48 h

SMILES strings stand for the structures.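 These data come from cells grown in 96-well plates and exposed to compound for 48 hours at five concentrations. GI50 = concentration required for 50% inhibition of growth.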 The source made the active and inactive calls. Rule as the data show it: active = GI50 up to about 1.1 µM and inactive = higher.

With `O=c1[nH][nH]c(=O)n1Cc1cccc(Cn2c(=O)[nH][nH]c2=O)c1`, the GI50 in the test with Malme-3M, with HCC 2998, in the test with RXF 393, with MOLT-4, in the test with CAKI-1 and in the test on MCF7 was > 100 µM (inactive) in each case. Also, the GI50 with NCI/ADR-RES, with OVCAR-8, with UACC-62, in the test on NCI-H23, in the test with HCT-116 and in the test with SR was > 100 µM (inactive) each time. In addition, the GI50 in the test with HCT-15 was more than 100 µM; in the test with HL-60 it was > 100 µM (inactive); in the test with OVCAR-5, > 100 µM (inactive); with U-251, > 100 µM (inactive); in the test with EKVX, > 100 µM (inactive); with SNB-19, > 100 µM (inactive).

In the case of `CC1OC(OC2C(CO)OC(O[C@H]3CC[C@@]4(C)C(=CC[C@H]5[C@@H]6C[C@@H]7O[C@](O)(CC[C@H](C)COC8OC(CO)C(O)C(O)C8O)[C@@H](C)[C@@H]7[C@@]6(C)CC[C@@H]54)C3)C(OC3OC(C)C(O)C(O)C3O)C2O)C(O)C(O)C1O` (some centres undefined), the GI50 in the test on Malme-3M is 5.6 µM (inactive); in the test with RXF 393, 5.11 µM (inactive); in the test with MOLT-4 it was 2.29 µM (inactive); with CAKI-1 it was 1.77 µM (inactive); in the test on MCF7 it was 7.8 µM (inactive); in the test on NCI/ADR-RES, 4.4 µM (inactive). Further, the GI50 is 4.06 µM (inactive) in the test on OVCAR-8; 5.42 µM (inactive) in the test with UACC-62; 4.29 µM (inactive) in the test with NCI-H23; 3.72 µM (inactive) in the test on HCT-116; > 100 µM (inactive) in the test with SR; 2.75 µM in the test with HCT-15. Moreover, the GI50 in the test on HL-60 was 4.66 µM (inactive); with OVCAR-5, 10.8 µM (inactive); in the test with ACHN, 14.3 µM (inactive); in the test with U-251, 3.15 µM (inactive); with EKVX, 17.1 µM (inactive); with SNB-19, 2.8 µM (inactive). In addition, the GI50 in the test on HOP-92 was 3.56 µM (inactive).

Take `OC12CC3c4ccccc4NC3C3Oc4cccc5c4C31CCN(CC1CC1)C2C5` (centres undefined): the GI50 was 19.7 µM (inactive) in the test with Malme-3M; 14.3 µM (inactive) in the test with RXF 393; 15.5 µM (inactive) in the test on MOLT-4; 17.6 µM (inactive) in the test with CAKI-1; 17.8 µM (inactive) in the test with MCF7; 21.2 µM (inactive) in the test with NCI/ADR-RES. For the same compound, the GI50 in the test on OVCAR-8 is 16.4 µM (inactive); in the test with UACC-62, 18.4 µM (inactive); in the test on NCI-H23, 13 µM (inactive); in the test with HCT-116 it was 16.8 µM (inactive); with SR, 17.4 µM (inactive); in the test on HCT-15, 17.9 µM. The GI50 in the test with OVCAR-5 is 21.1 µM (inactive); with ACHN it was 18.9 µM (inactive); with U-251 it was 17.3 µM (inactive); in the test on EKVX, 16.7 µM (inactive); in the test with SNB-19 it was 18.2 µM (inactive); in the test with HOP-92 it was 11.4 µM (inactive).

Regarding `O=C1N(c2ccccc2)C2(c3ccccc3)CC3CCCC13S2` (centres undefined), the GI50 with Malme-3M was 40.9 µM (inactive); in the test with RXF 393, > 100 µM (inactive); with MOLT-4, 24.2 µM (inactive); with CAKI-1, > 100 µM (inactive); in the test with MCF7, 42.1 µM (inactive); in the test with NCI/ADR-RES, 40.8 µM (inactive). Moreover, the GI50 with OVCAR-8 is > 100 µM (inactive); in the test on UACC-62 it was 77.8 µM (inactive); in the test with NCI-H23, 50.5 µM (inactive); in the test on HCT-116, 46.6 µM (inactive); in the test on SR it was 26.4 µM (inactive); with HCT-15 it was 65.3 µM. The GI50 with HL-60 was 26.2 µM (inactive); in the test with OVCAR-5 it was > 100 µM (inactive); in the test on ACHN, > 100 µM (inactive); in the test on U-251, 49.5 µM (inactive); in the test with EKVX, 71.8 µM (inactive); in the test on SNB-19, > 100 µM (inactive). Moreover, the GI50 with HOP-92 is 67.5 µM (inactive).

Regarding `CN(C)c1c(C2CC(O)C(CO)O2)c(=O)c1=O` (centres undefined), the GI50 in the test on HCC 2998, in the test with MOLT-4, in the test on MCF7, in the test on NCI/ADR-RES, in the test with OVCAR-8 and with UACC-62 was > 100 µM (inactive) each time. The GI50 is > 100 µM (inactive) in the test on HCT-116; > 100 µM (inactive) in the test with SR; more than 100 µM in the test with HCT-15; > 100 µM (inactive) in the test with HL-60; > 100 µM (inactive) in the test with OVCAR-5; > 100 µM (inactive) in the test on ACHN. Besides, the GI50 in the test with U-251, in the test on EKVX, in the test with SNB-19 and in the test with HOP-92 was > 100 µM (inactive) throughout.

For `COC(=O)C1=CS/C(=C2\S[C@@H]3[C@H](S2)[C@H]2C=C[C@@H]3C2)S1`, the GI50 with Malme-3M is > 100 µM (inactive); with RXF 393, 29.6 µM (inactive); with MOLT-4, 5.19 µM (inactive); in the test with CAKI-1, 7.14 µM (inactive); in the test with MCF7 it was 10.9 µM (inactive); in the test with NCI/ADR-RES, 9.66 µM (inactive). The GI50 was > 100 µM (inactive) in the test with OVCAR-8; 12.5 µM (inactive) with UACC-62; > 100 µM (inactive) in the test on NCI-H23; 8.09 µM (inactive) with HCT-116; 3.4 µM (inactive) in the test on SR; 17.3 µM with HCT-15. For the same compound, the GI50 is 9.82 µM (inactive) with HL-60, 8.49 µM (inactive) in the test on U-251, 77.1 µM (inactive) in the test on SNB-19 and 79.8 µM (inactive) in the test with HOP-92.

`COc1ccc(/C=C2\C[C@H]3[C@@H]4CC=C5C[C@@H](O)CC[C@]5(C)[C@H]4CC[C@]3(C)\C2=N\O)cc1`: the GI50 was 24.9 µM (inactive) with Malme-3M; 12.7 µM (inactive) with RXF 393; 5.89 µM (inactive) in the test with MOLT-4; 2.58 µM (inactive) in the test with CAKI-1; 3.62 µM (inactive) in the test on MCF7; 19.4 µM (inactive) in the test with NCI/ADR-RES. For the same compound, the GI50 is 17.7 µM (inactive) in the test on UACC-62; 16.9 µM (inactive) with NCI-H23; 5.35 µM (inactive) in the test on HCT-116; 1.89 µM (inactive) in the test with SR; 6 µM in the test with HCT-15; 3.17 µM (inactive) with HL-60. The GI50 is 19.5 µM (inactive) with ACHN; 10.5 µM (inactive) in the test on U-251; 1.41 µM (inactive) in the test with EKVX; 25.8 µM (inactive) in the test on SNB-19; 25.6 µM (inactive) in the test with HOP-92.

As for `COC(=O)c1c(C#N)[nH]c(-c2ccsc2)c1C(=O)OC`, the GI50 is > 100 µM (inactive) in the test on Malme-3M; > 100 µM (inactive) in the test with RXF 393; > 100 µM (inactive) with MOLT-4; 33.4 µM (inactive) in the test on CAKI-1; > 100 µM (inactive) with MCF7; > 100 µM (inactive) in the test on NCI/ADR-RES. Also, the GI50 with OVCAR-8 is > 100 µM (inactive); in the test with UACC-62, 76 µM (inactive); in the test with NCI-H23, > 100 µM (inactive); in the test on HCT-116 it was > 100 µM (inactive); in the test on SR it was > 100 µM (inactive); with OVCAR-5, > 100 µM (inactive). Also, the GI50 in the test with ACHN is > 100 µM (inactive); in the test on U-251 it was > 100 µM (inactive); in the test on EKVX, > 100 µM (inactive); in the test with HOP-92, 51.6 µM (inactive).

For `Nc1[nH]c(=S)[nH]c(=O)c1/N=N/c1c(Br)cc(S(N)(=O)=O)cc1Br`, the GI50 in the test with Malme-3M, with RXF 393, in the test with MOLT-4, in the test on CAKI-1, with MCF7 and in the test with NCI/ADR-RES was > 100 µM (inactive) throughout. The GI50 is > 100 µM (inactive) in the test on OVCAR-8; > 100 µM (inactive) in the test on UACC-62; > 100 µM (inactive) in the test with NCI-H23; > 100 µM (inactive) in the test on HCT-116; > 100 µM (inactive) in the test on SR; more than 100 µM in the test on HCT-15. Moreover, the GI50 in the test on HL-60, in the test on OVCAR-5, in the test with ACHN, with U-251, in the test with EKVX and with SNB-19 was > 100 µM (inactive) in each case. Further, in the test on HOP-92, the GI50 is > 100 µM (inactive).

Take `COc1cccc(-c2cc(O)c3cc(C)cnc3n2)c1`: the GI50 in the test with HCC 2998 was 1.51 µM (inactive); in the test with RXF 393, 0.0211 µM (active); in the test on MOLT-4 it was 0.115 µM (active); in the test with CAKI-1 it was 0.0389 µM (active); in the test on MCF7, 0.543 µM (active); with NCI/ADR-RES it was 0.0295 µM (active). Moreover, the GI50 in the test with OVCAR-8 is 0.0658 µM (active); in the test on UACC-62, 0.0258 µM (active); in the test with NCI-H23 it was 0.203 µM (active); in the test on HCT-116, 0.0323 µM (active); in the test with SR it was 0.0297 µM (active); with HCT-15, 0.251 µM. For the same compound, the GI50 was 0.0246 µM (active) with HL-60; 0.82 µM (active) in the test with OVCAR-5; 0.0625 µM (active) in the test with ACHN; 0.0473 µM (active) in the test on U-251; 0.0667 µM (active) in the test with SNB-19.

For the compound `CC(=O)NCC1(c2ccccc2)CCN(CC2COc3ccccc3O2)CC1` (centres undefined) [ACOXATRINE], the GI50 in the test on Malme-3M, in the test with HCC 2998, in the test on RXF 393, in the test with MOLT-4, in the test with CAKI-1 and in the test with MCF7 was > 100 µM (inactive) in each case. Besides, the GI50 in the test on NCI/ADR-RES, in the test on OVCAR-8, in the test with UACC-62, in the test on NCI-H23, in the test with HCT-116 and in the test on SR was > 100 µM (inactive) each time. Moreover, the GI50 was more than 100 µM with HCT-15; > 100 µM (inactive) in the test with HL-60; > 100 µM (inactive) with OVCAR-5; > 100 µM (inactive) with ACHN; > 100 µM (inactive) with U-251; > 100 µM (inactive) with EKVX. In addition, the GI50 with SNB-19 was > 100 µM (inactive).
